These results are taken from patent US12514843B2, “Biofilm disruption” (QBIOTICS PTY LTD, priority 2019, dated 2026).

SMILES strings stand for the structures. Values after ≈ are worked out from the molar mass of the structure shown.

The test system of assay [1] is Acinetobacter baumannii 7789 (V19). Kind of assay: Minimum inhibitory concentration (MIC) assay, planktonic culture, broth dilution. In kind it is cell-based. Details: key: C = confluent growth, i.e. no MIC could be determined at any concentration tested. The conditions noted are these: A. baumannii, planktonic culture in Mueller-Hinton broth; mean of three replicate tests. As for the experimental part:
(§1) The effects of five epoxytiglienones (Compounds 1, 2, 3, 4 and 6) and two comparator comparator compounds (epoxytiglienones having longer carbon chains at the C12 position) on six human pathogenic bacteria (two Gram-positive and four Gram-negative species) were measured in conventional planktonic culture systems. A minimum inhibitory concentrations (MIC) assay (the standard assay employed to define and quantify antibiotic activity) was performed to determine antibacterial activity for each epoxytiglienone against each bacterial strain.
(§2) The Gram-positive bacteria used in this study were methicillin resistant Staphylococcus aureus (MRSA) 1004A and Streptococcus pyogenes. The Gram-negative bacteria used in this study were Pseudomonas aeruginosa PAO1, Escherichia coli IR57 (V7), Klebsiella pneumoniae, and Acinetobacter baumannii 7789 (V19). MIC assays were performed on planktonic cultures of each bacteria grown in Mueller-Hinton broth using the standard broth dilution method described by Jorgensen et al. (1999) using epoxytiglienones dissolved in ethanol.
Background: In broth dilution the organism is exposed to a series of concentrations in liquid medium.

Assay [2] deals with Escherichia coli IR57 (V7). The description is as above. It counts as cell-based. Further details: key: C = confluent growth, i.e. no MIC could be determined at any concentration tested. As to conditions: E. coli, planktonic culture in Mueller-Hinton broth; mean of three replicate tests. As for the experimental part:
as §1, §2

Another assay deals with Klebsiella pneumoniae. The assay is described as above. It counts as cell-based. Details: key: C = confluent growth, i.e. no MIC could be determined at any concentration tested. As to conditions: K. pneumoniae, planktonic culture in Mueller-Hinton broth; mean of three replicate tests. As for the experimental part: as §1, §2
Assay [3] relates to Pseudomonas aeruginosa PAO1. The description is as above. In kind it is cell-based. Details: key: C = confluent growth, i.e. no MIC could be determined at any concentration tested. The conditions noted are these: P. aeruginosa, planktonic culture in Mueller-Hinton broth; mean of three replicate tests. As for the experimental part: as §1, §2
The subject of a further assay is Streptococcus pyogenes. Described as above. In kind it is cell-based. Details: key: C = confluent growth, i.e. no MIC could be determined at any concentration tested. The conditions noted are these: S. pyogenes, planktonic culture in Mueller-Hinton broth; mean of three replicate tests. As for the experimental part:
as §1, §2

Assay [4] concerns methicillin resistant Staphylococcus aureus (MRSA) 1004A. The description is as above. It counts as cell-based. Further details: key: C = confluent growth, i.e. no MIC could be determined at any concentration tested. The conditions noted are these: S. aureus, planktonic culture in Mueller-Hinton broth; mean of three replicate tests. On the procedure: as §1, §2
In assay [5] the test system is P. aeruginosa PAO1 biofilm. Kind of assay: Disruption of established in vitro biofilm, CLSM with COMSTAT image analysis. In kind it is cell-based, Pseudomonas aeruginosa. As to conditions: 256 μg/mL. On the procedure:
Biofilms of E. coli IR57 were grown on 96-well glass-bottomed plates in Mueller-Hinton (MH) broth for 24 h, before 50% of the supernatant was replaced with fresh MH broth with or without the epoxytiglienone compound added to a final concentration of 256 μg/mL (vehicle is ethanol). An ethanol equivalent blank was used as a further control treatment. The plates were then incubated for a further 24 h at 37° C.
Confocal laser scanning microscopy (CLSM) was then used to image the biofilms, following staining with Live/Dead® Baclight stain with phosphate buffered saline (PBS) added to each well before imaging with z-stack CLSM. The resultant images were analysed by COMSTAT software to produce measurements of (i) biofilm biomass volume or bio-volume (μm^3/μm^2) and (ii) DEAD/LIVE bacterial ratio.
The effects of the epoxytiglienones (Compounds 1, 4, 6 and the comparator compound CC-1) on disruption of established in vitro biofilms were further investigated with two other species of Gram-negative bacteria (Pseudomonas aeruginosa PA01 and Acinetobacter baumannii 7789) using methods described in Example 2 above. Cell permeabilisation following Compound 1, 4 and 6 treatment was also determined using SYTOX™ Green Nucleic Acid Stain with untreated control and positive control of 70% isopropanol.

In assay [6] the test system is human adult epidermal keratinocytes (HEKa). Kind of assay: Microarray gene expression in keratinocytes in vitro. In kind it is cell-based. The conditions noted are these: 170 nM. On the procedure:
(§3) In addition to disrupting the structure of biofilms comprising Gram-negative bacteria, effects of epoxytiglienones on regulation of genes involved in host response to bacterial infection were investigated in microarray studies with human adult epidermal keratinocytes (HEKa) and human adult dermal fibroblasts (HDF) in vitro.
(§4) For these studies, HEKa were cultured in EpiLife® Medium supplemented with Supplement S7 (both from Life Technologies, Carlsbad, CA, USA), while HDF were cultured in Medium 106 supplemented with LSGS (Low Serum Growth Supplement) (both from Life Technologies). Cells where then treated with vehicle or 170 nM Compound 4 for 0, 0.5, 1, 2, 4, 8, 24, 48 and 72 hours. RNA was extracted using a Qiagen RNeasy mini kit and biotinylated using an Illumina TotalPrep RNA Amplification Kit (Ambion, Austin, TX, USA). Labelled RNA was hybridised to HumanHT-12 v4 BeadChip Arrays (Illumina Inc, San Diego, CA, USA) and scanned according to standard Illumina protocols. Data were extracted in GenomeStudio (Illumina) using default analysis settings and no normalisation method. Resulting data were imported into GeneSpring GX (Agilent, Santa Clara, CA, USA. Expression values were normalised using quantile normalisation with default settings.

Assay [7] relates to human adult dermal fibroblasts (HDF). Kind of assay: Microarray gene expression in fibroblasts in vitro. In kind it is cell-based. The conditions noted are these: 170 nM, within 2 to 4 hours. As for the experimental part:
as §3, §4

The test system of assay [8] is isolated human neutrophils. Kind of assay: LL-37 release from neutrophils, ELISA. In kind it is cell-based. The conditions noted are these: 3 hours after treatment, 62.5, 125, 250 and 500 μM. As for the experimental part: For these assays, neutrophils were isolated from fresh blood of a healthy human donor by lysis of a red blood cell pellet that had been obtained by Ficoll-Paque sedimentation. The neutrophils (˜4×10^6 cells/mL) were incubated with 10 μg/mL dihydroethidium (DHE) (Sigma-Aldrich) in complete culture medium at 37° C. for 15 min alongside an aliquot of unstained cells to be tested as unstained control.
To examine antimicrobial peptide release by neutrophils in response to treatment with Compound 4, isolated neutrophils were incubated with either vehicle or Compound 4 at the four concentrations (62.5, 125, 250 and 500 μM). At 3 h, cell culture supernatants were removed and tested for LL-37 content using a LL-37-directed ELISA kit (Hycult Biotech). ELISA readings were normalised to vehicle only controls to determine fold increases in LL-37 release.
(An ELISA detects its analyte on a solid surface through an enzyme-linked reagent.)

For `CCCCCC(=O)OC1C(C)C2(O)C(C3OC3(CO)C(O)C3(O)C(=O)C(C)=CC32)C2C(C)(C)C12OC(=O)CCCCC` (stereo not shown) [Compound 4, 12,13-dihexanoyl-6,7-epoxy-4,5,9,12,13,20-hexahydroxy-1-tiglien-3-one], the Minimum inhibitory concentrations entry in assay [1] was “C”; in assay [2] it was “C”; with Klebsiella pneumoniae, “C”; in [3] it was “C”; in the assay on Streptococcus pyogenes, 256 µg/mL (≈ 432 µM); in [4], 512 µg/mL (≈ 864 µM). Moreover, the “biofilm distribution (CLSM)” value in assay [5] (compared to other treatments) is listed as “significant effect”. In addition, in assay [5] (compared to other treatments (P<0.05)), the “biofilm bio-volume (COMSTAT)” value is given as “significant effect”. In addition, the DEAD/LIVE bacterial ratio result in assay [5] (vs untreated and ethanol blank controls) is “no significant differences”. In assay [6] (from 8 to 72 hours post treatment), the “production of host defence peptides (DEFB2, DEFB3, DEFB4, RNASE7)” value is listed as “significantly upregulated”. Moreover, the “expression of chemokines/cytokines involved in PMNL recruitment (IL8, CXCL1)” value in assay [6] (within 2 to 4 hours) and in [7] was “significant upregulation” in each case. Also, the “Release of LL-37 from neutrophils” value in assay [8] is recorded as “increased in a concentration dependent manner”.
